Legend:
Settings in all cases: incubation time: 72 h
CAL-51 [1] = assay: normalised response (% of control), CellTiter-Glo; higher = more viable cells (100 = DMSO, 0 = benzethonium chloride kill control)
In short: (§1)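 Every value is a normalised signal taken at one concentration of a dilution series. Compound was placed in 384-well plates at 5 concentrations in 10-fold steps over a compound-specific 10,000-fold range, and 20 µl of breast cancer cell suspension was seeded onto it. After 72 h, CellTox Green fluorescence (485/520 nm) was measured first and CellTiter-Glo luminescence second, following 10 min at room temperature. Each plate was scaled to 0.1 % DMSO (100) and a positive kill control (0).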

CAL-120 [2] = assay: as above
In short: as §1

DU-4475 [3] = assay: as above
In short: as §1

Hs578T [4] = assay: as above
In short: as §1

HCC1143 [5] = assay: as above
In short: as §1

MFM-223 [6] = assay: as above
In short: as §1

HCC1599 [7] = assay: as above
In short: as §1

HDQ-P1 [8] = assay: as above
In short: as §1

BT-474 [9] = assay: as above
In short: as §1

MCF-10A = assay: as above
In short: as §1

MDA-MB-436 [10] = assay: as above
In short: as §1

MDA-MB-231 [11] = assay: as above
In short: as §1

MDA-MB-453 [12] = assay: as above
In short: as §1

BT-549 [13] = assay: as above
In short: as §1

MDA-MB-468 [14] = assay: as above
In short: as §1

CAL-85-1 [15] = assay: as above
In short: as §1

CAL-148 [16] = assay: as above
In short: as §1

SK-BR-3 [17] = assay: as above
In short: as §1

HCC1937 [18] = assay: as above
In short: as §1

CAL-51 [19] = assay: normalised viability (% of control), CellTiter-Blue; higher = more viable cells (100 = DMSO, 0 = benzethonium chloride kill control)
In short: (§2)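 Breast cancer cell lines were treated for 72 h in 384-well format and measured by CellTiter-Blue fluorescence at 560/590 nm. Results were normalised per plate to vehicle (100) and a positive kill control (0). The entry is normalised viability at a single listed concentration of the series.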

CAL-120 [20] = assay: as above
In short: as §2

DU-4475 [21] = assay: as above
In short: as §2

Hs578T [22] = assay: as above
In short: as §2

HCC1143 [23] = assay: as above
In short: as §2

MFM-223 [24] = assay: as above
In short: as §2

HCC1599 [25] = assay: as above
In short: as §2

HDQ-P1 [26] = assay: as above
In short: as §2

BT-474 [27] = assay: as above
In short: as §2

MDA-MB-436 [28] = assay: as above
In short: as §2

MDA-MB-231 [29] = assay: as above
In short: as §2

MDA-MB-453 [30] = assay: as above
In short: as §2

BT-549 [31] = assay: as above
In short: as §2

MDA-MB-468 [32] = assay: as above
In short: as §2

CAL-85-1 [33] = assay: as above
In short: as §2

CAL-148 [34] = assay: as above
In short: as §2

SK-BR-3 [35] = assay: as above
In short: as §2

HCC1937 [36] = assay: as above
In short: as §2

Row | Structure (SMILES) | normalised response (CAL-51 [1]) | normalised response (CAL-120 [2]) | normalised response (DU-4475 [3]) | normalised response (Hs578T [4]) | normalised response (HCC1143 [5]) | normalised response (MFM-223 [6]) | normalised response (HCC1599 [7]) | normalised response (HDQ-P1 [8]) | normalised response (BT-474 [9]) | normalised response (MCF-10A) | normalised response (MDA-MB-436 [10]) | normalised response (MDA-MB-231 [11]) | normalised response (MDA-MB-453 [12]) | normalised response (BT-549 [13]) | normalised response (MDA-MB-468 [14]) | normalised response (CAL-85-1 [15]) | normalised response (CAL-148 [16]) | normalised response (SK-BR-3 [17]) | normalised response (HCC1937 [18]) | normalised viability (CAL-51 [19]) | normalised viability (CAL-120 [20]) | normalised viability (DU-4475 [21]) | normalised viability (Hs578T [22]) | normalised viability (HCC1143 [23]) | normalised viability (MFM-223 [24]) | normalised viability (HCC1599 [25]) | normalised viability (HDQ-P1 [26]) | normalised viability (BT-474 [27]) | normalised viability (MDA-MB-436 [28]) | normalised viability (MDA-MB-231 [29]) | normalised viability (MDA-MB-453 [30]) | normalised viability (BT-549 [31]) | normalised viability (MDA-MB-468 [32]) | normalised viability (CAL-85-1 [33]) | normalised viability (CAL-148 [34]) | normalised viability (SK-BR-3 [35]) | normalised viability (HCC1937 [36])
1 | C[C@@H](C(=O)O)c1ccc(-c2ccccc2)c(F)c1 [Tarenflurbil] (1 nM) | 83.3% | 98.1% | 95.6% | 99.1% | 94.2% | 93.5% | 113% | 96.8% | 93.8% | 85.5% | 102% | 98.1% | 103% | 103% | 97.1% | 91.3% | 98.8% | 84.6% | 92.7% | 110% | 93.7% | 111% | 101% | 108% | 97.5% | 128% | 85.4% | 114% | 103% | 88.8% | 107% | 99.2% | 107% | 92.7% | 97.1% | 87.9% | 108%
2 | O=C(c1cc(Cc2n[nH]c(=O)c3ccccc23)ccc1F)N1CCN(C(=O)C2CC2)CC1 [Olaparib] (1 nM) | 114% | 92.4% | 102% | 99.9% | 93.1% | 96.7% | 101% | 95.9% | 96.7% | 92.8% | 104% | 99.1% | 103% | 103% | 99% | 103% | 93% | 102% | 90.5% | 103% | 73.8% | 94.1% | 99.7% | 88.4% | 91% | 89.9% | 96.9% | 85.8% | 113% | 84.8% | 92.7% | 86% | 95.3% | 87.6% | 87.1% | 91.2% | 102%
3 | CCN(CC)CCOc1ccc(C(=C(Cl)c2ccccc2)c2ccccc2)cc1 [Clomifene] (1 nM) | 102% | 95.8% | 104% | 101% | 105% | 99.6% | 99.8% | 99.2% | 106% | 95.8% | 111% | 106% | 106% | 101% | 98.8% | 104% | 109% | 108% | 96.9% | 94.5% | 90.2% | 92.8% | 123% | 89.7% | 101% | 79.7% | 125% | 95.6% | 111% | 104% | 102% | 116% | 103% | 89% | 105% | 96.7% | 97.7%
4 | Cn1nnc2c(C(N)=O)ncn2c1=O [Temozolomide] (1 nM) | 92.3% | 99.5% | 97.5% | 99.8% | 95% | 94.9% | 90% | 96.3% | 95.4% | 104% | 92.3% | 94.8% | 97.6% | 104% | 100% | 97.5% | 96.2% | 98.3% | 99.3% | 95.5% | 107% | 128% | 102% | 118% | 102% | 109% | 96.6% | 86.8% | 95.7% | 93% | 98.1% | 100% | 96% | 103% | 103% | 126% | 113%
5 | NC1(c2ccc(-c3nc4ccn5c(=O)[nH]nc5c4cc3-c3ccccc3)cc2)CCC1 [MK-2206] (0.1 nM) | 87.9% | 112% | 101% | 97.2% | 102% | 112% | 87.8% | 103% | 101% | 107% | 98.3% | 106% | 98.9% | 99.5% | 103% | 98.7% | 110% | 110% | 100% | 99.9% | 106% | 118% | 107% | 118% | 100% | 94.9% | 113% | 115% | 108% | 106% | 105% | 114% | 111% | 108% | 106% | 107% | 129%
6 | C[C@]12C=CC(=O)C=C1CC[C@@H]1[C@@H]2C(=O)C[C@@]2(C)[C@H]1CC[C@]2(O)C(=O)CO [Prednisone] (1 nM) | 92.7% | 109% | 103% | 97.1% | 101% | 106% | 100% | 101% | 99.4% | 98.2% | 110% | 98.5% | 111% | 99.8% | 104% | 99.1% | 106% | 109% | 99.9% | 99.5% | 84.3% | 110% | 104% | 92.8% | 96.2% | 113% | 98.1% | 126% | 110% | 95.9% | 103% | 105% | 104% | 100% | 101% | 90.8% | 93.5%
7 | COc1cc2c(N3CCN(C(=O)Nc4ccc(OC(C)C)cc4)CC3)ncnc2cc1OCCCN1CCCCC1 [Tandutinib] (0.1 nM) | 82.2% | 101% | 104% | 97.3% | 97.9% | 105% | 113% | 111% | 107% | 95.5% | 97.3% | 104% | 96.1% | 99.8% | 104% | 101% | 102% | 96.7% | 92.9% | 107% | 98.7% | 109% | 120% | 103% | 96.7% | 98% | 116% | 114% | 104% | 85.3% | 102% | 111% | 105% | 101% | 107% | 106% | 67.1%
8 | Cc1cc2c(F)c(Oc3ncnn4cc(OC[C@@H](C)O)c(C)c34)ccc2[nH]1 [Brivanib] (0.1 nM) | 114% | 101% | 104% | 104% | 104% | 105% | 111% | 97.9% | 104% | 108% | 101% | 107% | 104% | 100% | 113% | 101% | 106% | 111% | 101% | 93.4% | 78.7% | 109% | 112% | 101% | 96.5% | 96% | 84.9% | 93.5% | 114% | 99.5% | 104% | 109% | 104% | 86.7% | 107% | 98% | 82.1%

From the supplement of paper PMC4862054
